This is an account of results in patent US8906925B2, “Pyrido[4,3-B]indoles containing rigid moieties” (Medivation Technologies, Inc., priority 2008, dated 2014).

For assay [1], the target named is T1, human recombinant adrenergic α2A receptor (Homo sapiens, UniProt P08913).
T1 construct: expressed in transfected cells; host or cells: insect Sf9 cells
T1 sequence (P08913 1-465): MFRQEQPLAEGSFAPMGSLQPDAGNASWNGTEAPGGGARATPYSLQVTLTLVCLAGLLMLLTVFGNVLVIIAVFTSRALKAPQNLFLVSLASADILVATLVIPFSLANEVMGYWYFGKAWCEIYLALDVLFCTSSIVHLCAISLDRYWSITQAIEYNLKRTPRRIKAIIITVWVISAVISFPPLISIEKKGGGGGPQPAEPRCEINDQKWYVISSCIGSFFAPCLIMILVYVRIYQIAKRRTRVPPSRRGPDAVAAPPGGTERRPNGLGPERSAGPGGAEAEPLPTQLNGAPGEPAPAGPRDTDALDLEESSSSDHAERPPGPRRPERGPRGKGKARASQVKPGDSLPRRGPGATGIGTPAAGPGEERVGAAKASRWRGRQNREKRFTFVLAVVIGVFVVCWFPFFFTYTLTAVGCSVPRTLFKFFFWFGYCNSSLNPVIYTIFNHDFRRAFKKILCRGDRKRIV
The experiment in a line: Adrenergic α2A radioligand binding ([3H]MK-912). The conditions noted are these: percent inhibition of specific binding, compound at 1 μM; for inhibition at 1 µM: read-out: Inhibition of ligand binding, Adrenergic α2A. The procedure, abridged: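 Sf9-expressed human receptor in 50 mM Tris-HCl pH 7.4, 12.5 mM MgCl2, 2 mM EDTA; compounds at 1 μM or lower (1% DMSO) incubated with 1 nM [3H]MK-912 for 60 min at 25° C. Non-specific binding defined with 10 μM WB-4101; filtered bound radioactivity counted, reported as percent inhibition of specific binding.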

Assay [2] has as its target T2, human recombinant histamine H2 receptor (Homo sapiens, UniProt P25021).
T2 construct: expressed in transfected cells; host or cells: Chinese hamster ovary (CHO) K1 cells
Briefly: Histamine H2 radioligand binding ([125I]Aminopotentidine). The conditions noted are these: read-out: Histamine Binding (1 μM) H2, percent inhibition of specific binding, 1 μM. A digest of the protocol: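 CHO-K1 cells expressing human recombinant H2 receptor, 50 mM phosphate buffer pH 7.4; compounds incubated with 0.1 nM [125I]aminopotentidine for 120 min at 25 °C. Nonspecific binding defined with 3 μM tiotidine; specifically bound radioligand counted after filtration and washing.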

For assay [3], the target named is T3, human recombinant adrenergic α2B receptor (Homo sapiens, UniProt P18089).
T3 construct: expressed in transfected cells; host or cells: Chinese hamster ovary (CHO-K1) cells
T3 sequence (P18089 1-450): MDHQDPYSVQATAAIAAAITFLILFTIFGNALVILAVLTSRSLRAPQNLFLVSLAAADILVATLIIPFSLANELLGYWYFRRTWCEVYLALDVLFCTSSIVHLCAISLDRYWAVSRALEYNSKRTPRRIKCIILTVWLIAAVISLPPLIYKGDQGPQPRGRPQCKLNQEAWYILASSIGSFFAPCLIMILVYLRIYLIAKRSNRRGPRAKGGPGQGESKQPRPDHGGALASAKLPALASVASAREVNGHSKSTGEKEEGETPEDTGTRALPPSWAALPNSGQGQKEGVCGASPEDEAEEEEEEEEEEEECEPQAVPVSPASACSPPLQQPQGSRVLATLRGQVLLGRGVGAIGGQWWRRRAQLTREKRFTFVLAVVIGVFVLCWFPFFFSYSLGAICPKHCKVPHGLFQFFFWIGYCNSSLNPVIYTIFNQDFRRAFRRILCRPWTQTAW
Briefly: Adrenergic α2B radioligand binding ([3H]Rauwolscine). The conditions noted are these: percent inhibition of specific binding; compound at 1 μM; read-out: Inhibition of ligand binding, Adrenergic α2B. The procedure, abridged: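 Membranes from CHO-K1 cells expressing the receptor were incubated with 2.5 nM [3H]Rauwolscine for 60 min at 25 °C in Tris-HCl buffer pH 7.4 with MgCl2, EDTA and BSA. Non-specific binding was defined with 10 μM prazosin. Compounds were tested at ≤1 μM in 1% DMSO and read out as % inhibition of specific binding after filtration.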

The target of assay [4] is human recombinant serotonin (5-Hydroxytryptamine) 5-HT7 receptor (Homo sapiens, UniProt P34969). The experiment in a line: Serotonin 5-HT7 radioligand binding ([3H]LSD). An excerpt:
Receptor proteins were filtered and washed, the filters were then counted to determine [^3H]LSD specifically bound.

Assay [5] deals with T4, human recombinant serotonin (5-Hydroxytryptamine) 5-HT6 receptor (Homo sapiens, UniProt P50406).
T4 construct: expressed in transfected cells; host or cells: human HeLa cells
The experiment in a line: Serotonin 5-HT6 radioligand binding ([3H]LSD). The conditions noted are these: for inhibition at 0.1 µM: compound at 0.1 μM; for inhibition at 0.1 µM / inhibition at 1 µM: read-out: Inhibition of ligand binding, Serotonin 5-HT6 (percent inhibition of specific binding). The procedure:
Compounds of the invention were incubated with 1.5 nM [3H]Lysergic acid diethylamide (LSD) for 120 min. at 37° C. […] Receptor proteins were filtered and washed, the filters were then counted to determine [3H]LSD specifically bound. Compounds were screened at 1 μM or lower, using 1% DMSO as vehicle. Biochemical assay results are presented as the percent inhibition of specific binding in Table 10.

Where [6] appears, read: compound at 1 μM, read-out: Inhibition of ligand binding, Serotonin 5-HT7 (percent inhibition of specific binding).

Values joined by “and” are separate entries in the source; they are usually repeats but may differ in a detail not shown here. Equal values may be shown once.

T2 sequence (P25021 whole entry): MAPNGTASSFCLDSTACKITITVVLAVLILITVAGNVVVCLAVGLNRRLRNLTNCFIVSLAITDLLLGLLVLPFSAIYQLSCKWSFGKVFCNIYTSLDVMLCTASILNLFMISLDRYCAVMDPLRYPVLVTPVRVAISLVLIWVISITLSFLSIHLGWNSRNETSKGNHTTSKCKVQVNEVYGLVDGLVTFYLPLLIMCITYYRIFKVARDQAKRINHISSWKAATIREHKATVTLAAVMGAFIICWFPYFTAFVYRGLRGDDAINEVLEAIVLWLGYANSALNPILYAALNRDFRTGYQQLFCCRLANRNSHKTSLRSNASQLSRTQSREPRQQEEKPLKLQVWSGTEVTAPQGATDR
Sequence of human recombinant serotonin (5-Hydroxytryptamine) 5-HT7 receptor (P34969 whole entry): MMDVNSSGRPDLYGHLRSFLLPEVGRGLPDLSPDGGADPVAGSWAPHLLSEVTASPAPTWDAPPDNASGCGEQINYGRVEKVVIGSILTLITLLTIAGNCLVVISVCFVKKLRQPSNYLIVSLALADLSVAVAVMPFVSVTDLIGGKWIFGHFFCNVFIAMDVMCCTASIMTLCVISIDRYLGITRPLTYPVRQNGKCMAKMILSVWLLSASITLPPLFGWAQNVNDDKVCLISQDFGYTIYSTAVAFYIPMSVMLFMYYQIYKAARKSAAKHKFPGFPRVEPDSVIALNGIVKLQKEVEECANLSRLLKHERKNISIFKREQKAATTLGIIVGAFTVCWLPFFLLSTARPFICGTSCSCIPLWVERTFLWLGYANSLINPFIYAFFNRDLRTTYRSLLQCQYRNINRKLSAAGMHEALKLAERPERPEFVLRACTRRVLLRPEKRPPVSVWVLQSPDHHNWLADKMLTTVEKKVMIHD
T4 sequence (P50406 whole entry): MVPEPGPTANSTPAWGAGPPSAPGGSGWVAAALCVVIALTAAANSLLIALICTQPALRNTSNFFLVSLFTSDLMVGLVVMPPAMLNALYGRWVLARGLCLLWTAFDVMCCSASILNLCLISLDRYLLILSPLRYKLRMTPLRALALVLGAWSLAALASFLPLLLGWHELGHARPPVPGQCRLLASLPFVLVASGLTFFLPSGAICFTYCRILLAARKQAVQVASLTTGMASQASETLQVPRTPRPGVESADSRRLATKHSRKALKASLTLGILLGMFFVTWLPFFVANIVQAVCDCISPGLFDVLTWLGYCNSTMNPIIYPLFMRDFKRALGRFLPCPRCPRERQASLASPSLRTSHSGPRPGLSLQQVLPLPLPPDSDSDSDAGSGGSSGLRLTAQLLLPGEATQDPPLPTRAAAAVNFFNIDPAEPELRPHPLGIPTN

For orientation: inhibition means the drop in the measured response relative to a control, in per cent. On to `CN1CCc2c(c3cc(Cl)ccc3n2/C=C(\c2ccc(F)cc2)C2CC2)C1` [Compound 203, (Z)-8-chloro-5-(2-cyclopropyl-2-(4-fluorophenyl)vinyl)-2-methyl-2,3,4,5-tetrahydro-1H-pyrido[4,3-b]indole], for which the inhibition at 1 µM in assay [1] was determined as 100%; in assay [2] it was 99%; in assay [3], 108%; in assay [4] (setting [6]) it was 95%; in assay [5] (compound at 1 μM), 103%. The inhibition at 0.1 µM in assay [5] was found to be 97%.
Turning to `COc1ccc(C(C)(O)Cn2c3c(c4cc(C)ccc42)CN(C)CC3)cc1` (centres unmarked) [Compound 174, 1-(2,8-dimethyl-3,4-dihydro-1H-pyrido[4,3-b]indol-5(2H)-yl)-2-(4-methoxyphenyl)propan-2-ol], the inhibition at 1 µM stood at 93% in assay [1]; 80% in assay [2]; 88% in assay [3]; 95% in assay [4] (setting [6]); 82% in assay [5] (compound at 1 μM). Further, the inhibition at 0.1 µM in assay [4] (compound at 0.1 μM, read-out: Inhibition of ligand binding, Serotonin 5-HT7 (percent inhibition of specific binding)) is 68%; in assay [5], 40%.
Take `C/C(=C\n1c2c(c3cc(Cl)ccc31)CN(C)CC2)c1ccccc1F` [Compound 213, (E)-8-chloro-5-(2-(2-fluorophenyl)prop-1-enyl)-2-methyl-2,3,4,5-tetrahydro-1H-pyrido[4,3-b]indole]: the inhibition at 1 µM in assay [1] came out at 88%; in assay [2] it was 99%; in assay [3], 103%; in assay [4] (setting [6]), 100%; in assay [5] (compound at 1 μM), 100%.
As to `Cc1ccc2c(c1)c1c(n2/C=C(\CC(=O)O)c2ccc(F)cc2)CCN(C)C1` [Compound 209, (E)-4-(2,8-dimethyl-3,4-dihydro-1H-pyrido[4,3-b]indol-5(2H)-yl)-3-(4-fluorophenyl)but-3-enoic acid], the inhibition at 1 µM in assay [1] turned out to be 30%; in assay [2] it was 20%; in assay [3], 59%; in assay [4] (setting [6]) it was 36%; in assay [5] (compound at 1 μM), 41%.
For `Cc1ccc(C(O)Cn2c3c(c4ccccc42)CN(C)CC3)cc1` (racemic) [Compound 53, racemic-2-(1,2,3,4-tetrahydro-2-methylpyrido[4,3-b]indol-5-yl)-1-p-tolylethanol], in that order: 93%, 58%, 114%, 87% and 49%.
`CC(=Cn1c2c(c3cc(Cl)ccc31)CN(C)CC2)c1ccc(Cl)cc1Cl` (stereo in doubt) [Compound 111, (Z)-8-chloro-5-(2-(2,4-dichlorophenyl)prop-1-enyl)-2,3,4,5-tetrahydro-2-methyl-1H-pyrido[4,3-b]indole]: the “Inhibition of ligand binding, Adrenergic α2A” value in assay [1] (1 µM) is on record as 101%. In addition, the results for the inhibition at 1 µM in assay [2], in assay [3] and in assay [5] (compound at 1 μM) were 91%, 90% and 94%, respectively. Also, the “Inhibition of ligand binding, Serotonin 5-HT7 (percent inhibition of specific binding)” value in assay [4] (compound at 1 μM, 1 µM) is on record as 102%. For the same compound, in assay [5], the inhibition at 0.1 µM came out at 71%.
As to `CCN1CCc2c(c3cc(C)ccc3n2CC(O)c2ccc(C)cc2)C1` (racemic) [Compound 51, racemic-2-(2-ethyl-1,2,3,4-tetrahydro-8-methylpyrido[4,3-b]indol-5-yl)-1-p-tolylethanol], the inhibition at 1 µM came out at 91% in assay [1]; 59% in assay [2]; 118% in assay [3]; 91% in assay [4] (setting [6]); 83% in assay [5] (compound at 1 μM). For the same compound, in assay [5], the inhibition at 0.1 µM amounted to 29%.
As for `C/C(=C\n1c2c(c3cc(C)ccc31)CN(C)CC2)c1ccncc1` [Compound 88, (E)-2,3,4,5-tetrahydro-2,8-dimethyl-5-(2-(pyridin-4-yl)prop-1-enyl)-1H-pyrido[4,3-b]indole], the inhibition at 1 µM was 65% in assay [1]; 30% in assay [2]; 107% in assay [3]; 93% in assay [4] (setting [6]); 102% in assay [5] (compound at 1 μM). Besides, in assay [4] (compound at 0.1 μM, 0.1 µM), the “Inhibition of ligand binding, Serotonin 5-HT7 (percent inhibition of specific binding)” value was 75% and 97%. Also, the inhibition at 0.1 µM in assay [5] stood at 82%. For the same compound, the “Inhibition of ligand binding, Serotonin 5-HT6 (percent inhibition of specific binding)” value in assay [5] (compound at 1 μM, 1 µM) was 103%.
In the case of `Cc1ccc2c(c1)c1c(n2CC(O)(c2ccc(F)cc2)C2CCCCC2)CCN(C)C1` (centres unmarked) [Compound 171, 1-cyclohexyl-2-(2,8-dimethyl-3,4-dihydro-1H-pyrido[4,3-b]indol-5(2H)-yl)-1-(4-fluorophenyl)ethanol], the inhibition at 1 µM in assay [1] was 83%; in assay [2], 85%; in assay [3], 86%; in assay [4] (setting [6]), 42%; in assay [5] (compound at 1 μM) it was 93%. In assay [5], the inhibition at 0.1 µM was 35%.
On to `C/C(=C\n1c2c(c3cc(C)ccc31)CN(C)CC2)c1ccc(Cl)cc1` [Compound 211, (E)-5-(2-(4-chlorophenyl)prop-1-enyl)-2,8-dimethyl-2,3,4,5-tetrahydro-1H-pyrido[4,3-b]indole], for which the inhibition at 1 µM in assay [1] is 97%; in assay [2], 100%; in assay [3] it was 114%; in assay [4] (setting [6]) it was 101%; in assay [5] (compound at 1 μM), 98%. Besides, the inhibition at 0.1 µM in assay [5] amounted to 60%.
On to `CN1CCc2c(c3cc(Cl)ccc3n2/C=C(/c2ccc(F)cc2)C2CC2)C1` [Compound 110, (E)-8-chloro-5-(2-cyclopropyl-2-(4-fluorophenyl)vinyl)-2,3,4,5-tetrahydro-2-methyl-1H-pyrido[4,3-b]indole], for which the inhibition at 1 µM in assay [1] worked out at 99%; in assay [2], 102%; in assay [3] it was 92%; in assay [4] (setting [6]), 92%; in assay [5] (compound at 1 μM), 104%. Also, the inhibition at 0.1 µM in assay [5] is 102%.
With `C/C(=C\n1c2c(c3cc(Cl)ccc31)CN(C)CC2)c1ccc(Cl)cc1` [Compound 100, (E)-8-chloro-5-(2-(4-chlorophenyl)prop-1-enyl)-2,3,4,5-tetrahydro-2-methyl-1H-pyrido[4,3-b]indole], the inhibition at 1 µM came out at 101% in assay [1]; 100% in assay [2]; 97% in assay [3]; 99% in assay [4] (setting [6]); 95% in assay [5] (compound at 1 μM). Besides, the inhibition at 0.1 µM in assay [5] was found to be 62%.
Turning to `CNC(=O)C/C(=C\n1c2c(c3cc(C)ccc31)CN(C)CC2)c1ccc(F)cc1` [Compound 207, (E)-4-(2,8-dimethyl-3,4-dihydro-1H-pyrido[4,3-b]indol-5(2H)-yl)-3-(4-fluorophenyl)-N-methylbut-3-enamide], the inhibition at 1 µM in assay [1] is 86%; in assay [2], 46%; in assay [3] it was 80%; in assay [4] (setting [6]), 92%; in assay [5] (compound at 1 μM) it was 58%.
